Laboratory results taken from patent US5308625A, “Enhancement of transdermal drug delivery using monoalkyl phosphates and other absorption promoters” (priority 1992, dated 1994).
Converted amounts (≈) assume the structure as drawn. “Also recorded” adds a separate entry of the source. Where two headings read alike, the source gives them in different places. One block for each compound: values may come before it.

Assays:
[1] = test system: soluble guanylate cyclase; settings: by nitric oxide liberated from the active metabolite SIN-1A; cited from earlier work
[2] = test system: coronary strips; settings: cited from earlier work; for dependence of vasodilation action on cysteine: presence / absence of cysteine
[3] = test system: human skin; settings: in vivo; cited from earlier work
[4] = test system: human cadaver epidermis; test: Skin flux through human cadaver epidermis (modified Franz vertical diffusion cell, 32° C)
[5] = cited from earlier work
[6] = Solubilities of molsidomine in various solvents (saturation at 32° C., HPLC); assay type: physicochemical
Protocol: Molsidomine powder was weighed on weighing paper and transferred into the sample vial. Solvent was transferred into the vial followed by insertion of a small Teflon-coated magnetic stirring bar. The sample vial was screw-capped and placed on top of a multiple stirring system obtained from Florida Scientific, Inc. and housed in an incubation oven at 32° C. The sample solutions were examined for saturation. More molsidomine was added to the solutions until saturation was achieved.
The saturated solutions were filtered through a micro filter to remove excess solid molsidomine. The filtered samples were then assayed for molsidomine concentration by the HPLC analytical method.
In this way, the solubility of molsidomine in the particular vehicle(s) was estimated.

[7] = test system: human cadaver epidermis; settings: pH 6.8
[8] = test system: patients with coronary heart disease; settings: cited from earlier work
[9] = cited from earlier work; remark: listed apart in the source
[10] = in vivo; cited from earlier work
[11] = oral dose of 2 mg; cited from earlier work

Structure (SMILES): N#CCN(N=O)N1CCOCC1 [SIN-1A]
activation of soluble guanylate cyclase [1]: activates the soluble guanylate cyclase
dependence of vasodilation action on cysteine [2]: active in both the presence and absence of cysteine

Structure (SMILES): CCCCCCCCCCCCOP(=O)(O)O [mono-dodecyl phosphate (DDPO4), phosphoric acid mono-dodecyl ester]
human skin irritation potential [3]: very low human skin irritation potential
permeation enhancement of molsidomine (increment of skin flux) ([4]; addition of 10% DDPO4 to PGML, FIG. 3): four times increment
pirsidomine skin permeation enhancement ([4]; pirsidomine): showed pirsidomine skin permeation enhancement

solubility ([6]; aqueous buffer, Phosphate buffer pH 5.68, read-out: Solubilities): 12.3 ± 1.8 mg/mL (≈ 50.8 mM)
solubility ([6]; organic solvent or mixture, Propylene Glycol (PG), read-out: Solubilities): 85.5 ± 3.9 mg/mL (≈ 353 mM)
solubility ([6]; organic solvent or mixture, propylene glycol and propylene glycol with 10% of oleic acid, lauryl alcohol or PGML, read-out: solubility): ~90 mg/mL (≈ 372 mM)
solubility ([6]; pH 6.8, aqueous buffer, Phosphate buffer pH 6.80, read-out: Solubilities): 12.1 ± 1.3 mg/mL (≈ 50 mM)
solubility ([6]; propylene glycol:lauryl alcohol (10%), organic solvent or mixture, PG:Lauryl Alcohol (10%), read-out: Solubilities): 89.3 ± 1.5 mg/mL (≈ 369 mM)
solubility ([6]; propylene glycol:oleic acid (10%), organic solvent or mixture, PG:Oleic Acid (10%), read-out: Solubilities): 88.1 ± 0.7 mg/mL (≈ 364 mM)
solubility ([6]; propylene glycol:pgml (10%), organic solvent or mixture, PG:PGML (10%), read-out: Solubilities): 92.9 ± 2.8 mg/mL (≈ 384 mM)
skin flux from aqueous solution [7]: 9.7±1.9 μg/hr-cm^2
Structure (SMILES): CCOC(=O)[N-]c1cn(N2CCOCC2)n[o+]1 [Molsidomine, N-5-ethoxycarbonyl-3-morpholinosydnonimine]
Saturated solubility ([5]; Glycerin, 25° C.): 1.80%
Saturated solubility ([5]; Glycol salicylate, 25° C.): 15.1%
Saturated solubility ([5]; Isopropyl myristate, 25° C.): 0.09%
Saturated solubility ([5]; Octyl.decyl oil, 25° C.): 0.36%
Saturated solubility ([5]; Oleic Acid, 25° C.): 1.37%
Saturated solubility ([5]; PEG 400, 25° C.): 5.23%
Solubility (in words) ([5]; in CHCl3): Freely soluble
Solubility (in words) ([5]; in dil HCl, ethanol, ethyl acetate and methanol): Soluble
Solubility (in words) ([5]; in ether, petr ether): very slightly soluble
Solubility (in words) ([5]; in propylene glycol and a variety of organic solvents): soluble
Solubility (in words) ([5]; in water, acetone, benzene): sparingly soluble
tolerance [2]: insignificant tolerance
treatment and prevention of anginal pectoris ([8]; daily oral dosing of 2 mg for 3 to 4 times, clinical studies): effective
anti-anginal effect ([8]; human, in vivo): sustained anti-anginal effect
duration of anti-anginal effects ([8]; single oral dose of 2 mg, patients with coronary heart disease): 3 to 5 h
Chemical stability (in words) ([9]; aqueous solution of pH 5 to 7): very stable; also recorded: most stable
t90 ([9]; pH 1-2, 20° C.): 38 days
t90 ([9]; pH 4, 20° C.): 250 days
t90 ([9]; pH 5-7, 20° C.): 950 days
t90 ([9]; pH 10, 20° C.): 400 days
t90 ([9]; pH 11, 20° C.): 40 days
Photosensitivity ([9]; particularly in sunlight): photosensitive
metabolism [10]: can be metabolized to SIN-1
total clearance [11]: 46,000 ml/hr

Structure (SMILES): O=[N+]([O-])OCC(CO[N+](=O)[O-])O[N+](=O)[O-] [nitroglycerin]
tolerance [2]: tolerance toward the drug developed in coronary strips can be antagonized by cysteine
dependence of vasodilation action on cysteine [2]: depends on the presence of cysteine
